Reference: article PMC9497135, “Structure-Based Study to Overcome Cross-Reactivity of Novel Androgen Receptor Inhibitors” (Cells, 2022)
Substitutions are numbered along the chain they refer to.

What was measured:
[1] = test system: AR with T878A and W742C mutations; parameters: method as in PMID 12517791; details: cited from earlier work
[2] = target: T1, AR (LNCaP cells, which carry the T878A AR mutation) (Homo sapiens, UniProt P10275, T878A); test: eGFP cellular AR transcription assay in LNCaP cells (LN-ARR2PB-eGFP); type: cell-based; details: for Anti-AR activity in eGFP assay: eGFP-expressing LNCaP cells; for Partial agonistic effect in eGFP assay: with R1881, high concentrations
T1 construct: LNCaP cells, which carry the T878A AR mutation; endogenous in cells; host or cells: LNCaP (LN-ARR2PB-eGFP)
T1 sequence (P10275 1-920 T878A): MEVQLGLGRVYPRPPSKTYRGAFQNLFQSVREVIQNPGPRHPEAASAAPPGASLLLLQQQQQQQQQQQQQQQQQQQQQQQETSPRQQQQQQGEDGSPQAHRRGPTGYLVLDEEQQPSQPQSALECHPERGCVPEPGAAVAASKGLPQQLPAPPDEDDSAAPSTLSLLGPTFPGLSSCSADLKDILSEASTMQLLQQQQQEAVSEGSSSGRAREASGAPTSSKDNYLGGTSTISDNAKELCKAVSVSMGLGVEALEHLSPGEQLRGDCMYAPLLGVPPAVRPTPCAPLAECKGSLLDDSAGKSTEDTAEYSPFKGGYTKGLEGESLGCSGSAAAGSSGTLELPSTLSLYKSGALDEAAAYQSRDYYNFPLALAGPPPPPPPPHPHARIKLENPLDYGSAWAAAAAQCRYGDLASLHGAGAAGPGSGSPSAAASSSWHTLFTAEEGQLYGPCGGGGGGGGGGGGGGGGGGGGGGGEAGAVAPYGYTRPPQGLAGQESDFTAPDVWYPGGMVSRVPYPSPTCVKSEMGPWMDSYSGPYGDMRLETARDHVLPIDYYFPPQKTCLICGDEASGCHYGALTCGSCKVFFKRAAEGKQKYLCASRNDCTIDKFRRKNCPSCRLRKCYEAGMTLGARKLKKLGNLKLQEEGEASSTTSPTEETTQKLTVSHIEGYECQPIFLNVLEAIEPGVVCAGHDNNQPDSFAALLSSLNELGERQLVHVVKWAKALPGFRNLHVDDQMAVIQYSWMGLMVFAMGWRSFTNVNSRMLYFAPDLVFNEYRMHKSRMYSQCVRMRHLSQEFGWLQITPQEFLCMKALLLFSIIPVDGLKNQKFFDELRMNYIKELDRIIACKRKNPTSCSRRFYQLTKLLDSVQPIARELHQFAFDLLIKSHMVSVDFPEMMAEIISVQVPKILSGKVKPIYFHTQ
Method: AR transcriptional activity was assayed as previously described. Briefly, LNCaP human prostate cancer cells (LN-ARR2PB-eGFP), stably transfected with eGFP reporter driven by an androgen responsive probasin-derived promoter (ARR2PB), were grown in phenol red free RPMI 1640 media supplemented with 5% charcoal stripped serum (CSS). After 5 days, the cells were plated into a 96-well plate (35,000 cells/well) with 0.1 nM of the synthetic androgen R1881 and increasing concentrations (0−100 μM) of test compounds. Fluorescence (excitation 485 nm, emission 535 nm) was measured after 3 days of incubation with the compounds.

Androgen Receptor ABS = target: T2, Androgen Receptor ABS (Rattus norvegicus, UniProt P15207); test: Androgen (DHT) displacement, Polar Screen Androgen Receptor Competitor Green Assay Kit; type: binding; details: for Androgen displacement: at 50 µM; for Androgen Displacement (Yes/No): fluorescence polarization kit
T2 construct: purchased
T2 sequence (P15207 647-902 limits assumed): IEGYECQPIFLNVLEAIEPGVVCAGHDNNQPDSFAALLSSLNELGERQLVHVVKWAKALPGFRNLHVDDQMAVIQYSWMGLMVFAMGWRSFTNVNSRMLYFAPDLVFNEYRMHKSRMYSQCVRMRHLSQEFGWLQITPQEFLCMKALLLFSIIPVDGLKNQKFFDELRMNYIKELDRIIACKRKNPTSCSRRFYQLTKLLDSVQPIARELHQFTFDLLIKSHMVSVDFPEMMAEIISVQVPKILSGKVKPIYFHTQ
Method: Androgen displacement was assessed with the Polar Screen Androgen Receptor Competitor Green Assay Kit as per the instructions of the manufacturer.

T878A-AR mutant = target: T3, T878A-AR mutant (Homo sapiens, UniProt P10275, T878A); test: Luciferase reporter assay, PC3 cells transfected with T878A-AR; type: cell-based; details: T878A-AR, high concentrations, absence of R1881
T3 construct: Full-length human wild type AR was cloned into pcDNA3.1 expression plasmid; expressed in transfected cells; host or cells: PC3
T3 sequence (P10275 1-920 T878A): T1 sequence (P10275 1-920 T878A)
Method: Full-length human wild type AR was cloned into pcDNA3.1 expression plasmid (Invitrogen, Waltham, MA, USA) with a CMV promoter. The T878A mutant (T878A-AR) was generated with the Quikchange Mutagenesis Kit (Stratagene, San Diego, CA, USA) using hARWT plasmid as a template. Androgen-starved PC3 cells were seeded in 96-well plates (3000 cells/well) in RPMI 1640 + 5% CSS for 24 h followed by transfection with 50 ng of hARWT or hART878A along with 50 ng of ARR3tk-luciferase reporter construct (100 ng total plasmid DNA) and 0.3 µL/well TransIT20/20 transfection reagent (TT2020, Mirus, Madison, Wisconsin, WI, USA) for 48 h. […] Cell lysis was carried out with 60 µL 1X passive lysis buffer/well (Promega, Madison, Wisconsin, WI, USA). The luminescence from 20 µL of cell lysate and 50 µL of Luciferase assay reagent (Promega, Madison, Wisconsin, WI, USA) was recorded on a TECAN M200pro plate reader.

wild type AR LBD = target: T4, wild type AR LBD (Homo sapiens, UniProt P10275); test: Biolayer interferometry (BLI), wild type LBD; type: binding
T4 construct: made in house; host or cells: E. coli BL21-DE3 co-transformed with pBirACm
T4 sequence (P10275 669-900 limits assumed): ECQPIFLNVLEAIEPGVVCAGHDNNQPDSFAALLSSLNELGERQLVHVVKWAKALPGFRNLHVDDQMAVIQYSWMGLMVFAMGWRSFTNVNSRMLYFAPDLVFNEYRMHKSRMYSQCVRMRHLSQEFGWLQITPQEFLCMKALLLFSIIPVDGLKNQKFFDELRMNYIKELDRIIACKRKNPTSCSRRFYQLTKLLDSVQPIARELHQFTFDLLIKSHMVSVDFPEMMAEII
Method: (§1) The direct reversible interaction between small molecules and the AR was quantified by BLI using OctetRED (ForteBio, Fremont, CA, USA). The wild type and T878A-LDB in fusion with an N-terminal (His)6-avidin ([…]) tag were expressed in E. coli BL21-DE3 cells co-transformed with pBirACm plasmid (Avidity), which expresses a biotin ligase leading to the biotynilation of the avidin tag on the LBD. Cells were grown in LB media at 37 °C to an OD600nm = 0.5 and then induced with 0.5 mM isopropyl-β-D-thiogalactoside. A measure of 20 µM of dihydrotestosterone (DHT) and 0.15 mM biotin were added and the cells were incubated at 16 °C for 18 to 20 h. Cells were then resuspended and lysed in buffer containing 500 mM Li2SO4, 50mM HEPES pH7.2, 10% Glycerol, 0.1% Octyl-beta-Glucoside, 20 µM of DHT, 5 mM β-mercaptoethanol, 10 mM imidazole and 0.1 mM phenylmethanesulfonyl fluoride. […] After an overnight dialysis against 150 mM Li2SO4, 50 mM HEPES pH7.2, 10% Glycerol, 0.1% Octyl-beta-Glucoside, 20 µM of DHT and 0.2 mM tris(2-carboxyethyl)phosphine, purified proteins at 50 µg/mL were bound to the super-streptavidin sensors overnight at 4 °C. The assay was performed at 20 °C in the dialysis buffer supplemented with 5% dimethyl sulfoxide (DMSO) which was also used as our reference measurement.

T878A AR LBD = target: T5, T878A AR LBD (Homo sapiens, UniProt P10275, T878A); test: Biolayer interferometry (BLI), T878A LBD; type: binding
T5 construct: made in house; host or cells: E. coli BL21-DE3 co-transformed with pBirACm
T5 sequence (P10275 669-900 T878A limits assumed): T4 sequence (P10275 669-900 limits assumed) with T210A
Method: as §1

[3] = LNCaP eGFP reporter (ARR2PB promoter), 0.1 nM R1881, 3 days

SMILES | Reporter eGFP IC50 [2, 3] | Anti-AR activity in eGFP assay [2] | Partial agonistic effect in eGFP assay ([2]; LNCaP) | Androgen displacement (Androgen Receptor ABS) [%] | Androgen Displacement (Yes/No) (Androgen Receptor ABS) | further results
C[C@](O)(CS(=O)(=O)c1ccc(F)cc1)C(=O)Nc1ccc(C#N)c(C(F)(F)F)c1 [R-bicalutamide] |  |  |  |  |  | Agonist behaviour on mutated AR [1]: acts as an agonist only when the T878A mutation is also coupled with W742C
c1cc2c(cc1-c1csc(N3CCOCC3)n1)CCCC2 [VPC14291] | inactive | lost their anti-AR activity |  |  |  | 
c1sc(N2CCOCC2)nc1C1CCCC1 [VPC14403] | inactive | lost their anti-AR activity |  |  |  | 
c1cc(-c2csc(N3CCOCC3)n2)cs1 [VPC14404] |  | maintained good potency | no undesired partial agonistic effects were observed | <10 |  | 
c1sc(N2CCOCC2)nc1C1CCCCC1 [VPC14406] | inactive | lost their anti-AR activity |  |  |  | 
c1cc(-c2csc(N3CCOCC3)n2)ccn1 [VPC14435] |  | maintained good potency | no undesired partial agonistic effects were observed |  | No | 
c1ccc(-c2csc(N3CCOCC3)n2)nc1 [VPC14436] |  |  |  |  | No | 
c1cncc(-c2csc(N3CCOCC3)n2)c1 [VPC14439] |  |  |  | 30 | Yes | Concentration above which partial agonism is seen in the eGFP assay ([2]; LNCaP, 0.1 nM R1881): above 3 µM
Brc1ncn(-c2csc(N3CCOCC3)n2)c1Br [VPC14449] |  | maintained good potency | no undesired partial agonistic effects were observed | < 10 |  | IC50 [2, 3]: 150 ± 40 nM; Reduction of AR stimulation in comparison with VPC14368 (T878A-AR mutant): ~ 80%; Direct binding to wild-type LBD by BLI (wild type AR LBD): not binding; Direct binding to T878A LBD by BLI (T878A AR LBD): not binding; Androgen displacement (Androgen Receptor ABS; listed as 14449): <10%
